Literature values as cited in US20140107523A1, “MODEL FOR TRAUMATIC BRAIN INJURY” (University of Rochester, priority 2012, published 2014).

Tested on: NMDA receptor
Settings: rats treated with the NMDA receptor blocker; spatial learning

## N[C@@H](CCCP(=O)(O)O)C(=O)O [APV]
  performance in the Morris water maze: perform poorly
